Measured values as given in ChEMBL document CHEMBL5325422, “Design and synthesis of fascaplysin derivatives as inhibitors of FtsZ with potent antibacterial activity and mechanistic study” (Eur J Med Chem, 2023).
Values after ≈ are worked out from the molar mass of the structure shown. Active and inactive are the calls of the source. The rule behind the calls is not given here.

Columns and labels:
Streptococcus pneumoniae = test: Antibacterial activity against Streptococcus pneumoniae ATCC49619 assessed as bacterial growth inhibition incubated for 18 to 24 hrs by microbroth dilution method; format: functional; conditions: time 18-24 hrs
Bacillus subtilis [1] = test: Antibacterial activity against Bacillus subtilis BNCC336690 assessed as bacterial growth inhibition incubated for 18 to 24 hrs by microbroth dilution method; format: functional; conditions: time 18-24 hrs
Staphylococcus aureus [2] = test: Antibacterial activity against methicillin-resistant Staphylococcus aureus ATCC43300 assessed as bacterial growth inhibition incubated for 18 to 24 hrs by microbroth dilution method; format: functional; conditions: time 18-24 hrs
Escherichia coli = test: Antibacterial activity against penicillin-susceptible Escherichia coli ATCC25922 assessed as bacterial growth inhibition incubated for 18 to 24 hrs by microbroth dilution method; format: functional; conditions: time 18-24 hrs
Staphylococcus aureus [3] = test: Antibacterial activity against drug-resistant Staphylococcus aureus ATCC43300 assessed as inhibition of resistance development at 0.5 times MIC after 25 passages incubated for 18 to 24 hrs by microbroth dilution method; format: functional, organism-based; conditions: time 18-24 hrs
[4] = biological target: T1, Cell division protein FtsZ (Escherichia coli K-12) (UniProt P0A9A6); test: Inhibition of recombinant Escherichia coli FtsZ expressed in Escherichia coli BL21 assessed as induction of FtsZ polymerization incubated for 10 mins by light scattering assay; conditions: dose 1-4 µg/ml
T1 sequence (whole entry): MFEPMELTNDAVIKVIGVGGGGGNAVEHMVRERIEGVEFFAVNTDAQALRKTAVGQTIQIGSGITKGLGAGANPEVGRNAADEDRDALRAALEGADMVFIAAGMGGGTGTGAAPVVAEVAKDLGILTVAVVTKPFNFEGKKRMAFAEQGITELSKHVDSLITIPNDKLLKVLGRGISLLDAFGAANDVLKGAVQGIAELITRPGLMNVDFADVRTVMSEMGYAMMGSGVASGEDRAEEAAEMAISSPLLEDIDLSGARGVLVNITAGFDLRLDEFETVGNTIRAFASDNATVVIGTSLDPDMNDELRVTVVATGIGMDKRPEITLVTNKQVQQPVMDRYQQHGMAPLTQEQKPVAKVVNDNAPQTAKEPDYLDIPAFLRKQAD

[5] = biological target: T1, Cell division protein FtsZ (Escherichia coli K-12); test: Inhibition of recombinant Escherichia coli FtsZ expressed in Escherichia coli BL21 assessed as induction of FtsZ polymerization at 4 ug/ml incubated for 10 mins by light scattering assay; conditions: dose 4.0 µg/ml
[6] = Cytotoxicity against mouse RAW264.7 cells assessed as cell survival at 25 ug/ml incubated for 24 hrs by CCK8 assay relative to control; format: toxicity, cell-based; conditions: at 25 µg/mL, read-out: Activity
Staphylococcus aureus [7] = test: Antibacterial activity against methicillin-resistant Staphylococcus aureus ATCC43300 assessed as log10 CFU reduction at 1 to 4 times MIC measured after 4 hrs by time-killing assay; format: functional
[8] = biological target: T1, Cell division protein FtsZ (Escherichia coli K-12); test: Inhibition of recombinant Escherichia coli FtsZ expressed in Escherichia coli BL21 assessed as reduction in GTPase activity incubated for 30 mins by malachite green phosphate staining based assay; conditions: dose 0.02-0.64 µg/ml
[9] = Cytotoxicity against mouse RAW264.7 cells assessed as cell survival at 12.5 ug/ml incubated for 24 hrs by CCK8 assay relative to control; format: toxicity, cell-based; conditions: at 12.5 µg/mL, read-out: Activity
[10] = Hemolytic activity in human erythrocytes assessed as release of hemoglobin level at 12.5 ug/ml incubated for 1 hr by absorbance based assay relative to control; format: toxicity, cell-based, Erythrocyte; conditions: at 12.5 µg/mL, read-out: Activity
Staphylococcus aureus [11] = test: Antibacterial activity against methicillin-resistant Staphylococcus aureus ATCC43300 assessed as wrinkling cell surface at 4 times MIC incubated for 2 hrs by SEM analysis; format: functional, organism-based
[12] = biological target: T1, Cell division protein FtsZ (Escherichia coli K-12); test: Inhibition of recombinant Escherichia coli FtsZ expressed in Escherichia coli BL21 assessed as bundling of FtsZ filaments at 4 ug/ml incubated for 10 mins by TEM analysis; conditions: dose 4.0 µg/ml
Bacillus subtilis [13] = test: Antibacterial activity against Bacillus subtilis BNCC336690 assessed as increase in cell length at 0.5 times MIC incubated for 4 hrs by microscopic analysis; format: functional, organism-based
Staphylococcus aureus [14] = test: Antibacterial activity against methicillin-resistant Staphylococcus aureus ATCC43300 assessed as filamentation on cell surface at 4 times MIC incubated for 2 hrs by SEM analysis; format: functional, organism-based
[15] = Cytotoxicity against mouse RAW264.7 cells assessed as cell survival at 50 ug/ml incubated for 24 hrs by CCK8 assay relative to control; format: toxicity, cell-based; conditions: at 50 µg/mL, read-out: Activity
[16] = biological target: T1, Cell division protein FtsZ (Escherichia coli K-12); test: Inhibition of recombinant Escherichia coli FtsZ expressed in Escherichia coli BL21 assessed as reduction in GTPase activity at 0.32 ug/ml incubated for 30 mins by malachite green phosphate staining based assay relative to control; conditions: dose 0.32 µg/ml
Staphylococcus aureus [17] = test: Antibacterial activity against methicillin-resistant Staphylococcus aureus ATCC43300 assessed as log10 CFU reduction at 2 to 4 times MIC measured for 0.5 hrs by time-killing assay; format: functional
RAW264.7 = test: Cytotoxicity against mouse RAW264.7 cells >12.5 ug/ml incubated for 24 hrs by CCK8 assay; format: toxicity, cell-based; conditions: raw264.7, 24 h, dose > 12.5 µg/ml
Staphylococcus aureus [18] = test: Antibacterial activity against methicillin-resistant Staphylococcus aureus ATCC43300 assessed as log10 CFU reduction at MIC measured for 1 hr by time-killing assay; format: functional
Staphylococcus aureus [19] = test: Antibacterial activity against methicillin-resistant Staphylococcus aureus ATCC43300 assessed as bacterial count reduction at 2 times MIC measured after 10 hrs by time-killing assay; format: functional, organism-based

SMILES	MIC (Streptococcus pneumoniae) [µg/mL]	MIC (Bacillus subtilis [1]) [µg/mL]	MIC (Staphylococcus aureus [2]) [µg/mL]	MIC (Escherichia coli) [µg/mL]	also measured
COc1ccc(NC(=O)c2ccc3[nH]c4c5[n+](ccc4c3c2)-c2ccccc2C5=O)cc1.[Br-]	0.39	0.39	0.39	> 200	
O=C(NC1CCCCC1)c1ccc2[nH]c3c4[n+](ccc3c2c1)-c1ccccc1C4=O.[Br-]	0.78	0.78	0.78	> 200	
O=C(O)c1cn(C2CC2)c2cc(N3CCNCC3)c(F)cc2c1=O [CIPROFLOXACIN]	0.195 (≈ 0.589 µM)	0.195 (≈ 0.589 µM)	0.78 (≈ 2.35 µM)	0.195 (≈ 0.589 µM)	
CCCCCCCCc1ccc(NC(=O)c2ccc3[nH]c4c5[n+](ccc4c3c2)-c2ccccc2C5=O)cc1.[Br-]	25	25	25	> 200	
O=C(Nc1ccccc1)c1ccc2[nH]c3c4[n+](ccc3c2c1)-c1ccccc1C4=O.[Br-]	6.25	6.25	12.5	> 200	
CCCCCCc1ccc(NC(=O)c2ccc3[nH]c4c5[n+](ccc4c3c2)-c2ccccc2C5=O)cc1.[Br-]	6.25	0.78	25	> 200	
CCCCNC(=O)c1ccc2[nH]c3c4[n+](ccc3c2c1)-c1ccccc1C4=O.[Br-]	3.12	3.12	6.25	> 200	
Cc1cccc(NC(=O)c2ccc3[nH]c4c5[n+](ccc4c3c2)-c2ccccc2C5=O)c1.[Br-]	0.098	0.049	0.098	> 200	inhibition (Staphylococcus aureus [3]): inactive; inhibition [4]: Dose-Dependent Effect; inhibition [5]: Active; viability at 24 h, 25 ug/ml [6]: 106%; Activity (Staphylococcus aureus [7]): 2 log10CFU/ml; inhibition [8]: Dose-Dependent Effect; viability at 24 h, 12.5 ug/ml [9]: 104%; hemolysis at 1 h, 12.5 ug/ml [10]: 0%; Activity (Staphylococcus aureus [11]): Active; inhibition [12]: Active; Activity (Bacillus subtilis [13]): Active; Activity (Staphylococcus aureus [14]): Active; viability at 24 h, 50 ug/ml [15]: 101%
CCCCCCNC(=O)c1ccc2[nH]c3c4[n+](ccc3c2c1)-c1ccccc1C4=O.[Br-]	0.39	0.39	0.39	> 200	
CC(C)c1cccc(NC(=O)c2ccc3[nH]c4c5[n+](ccc4c3c2)-c2ccccc2C5=O)c1.[Br-]	0.049	0.098	0.098	> 200	inhibition (Staphylococcus aureus [3]): inactive; inhibition [4]: Dose-Dependent Effect; viability at 24 h, 25 ug/ml [6]: 100%; Activity (Staphylococcus aureus [7]): 2 log10CFU/ml; inhibition [8]: Dose-Dependent Effect; inhibition [16]: 40%; viability at 24 h, 12.5 ug/ml [9]: 98.8%; hemolysis at 1 h, 12.5 ug/ml [10]: 0%; Activity (Staphylococcus aureus [11]): Active; inhibition [12]: Active; Activity (Bacillus subtilis [13]): Active; Activity (Staphylococcus aureus [14]): Active; viability at 24 h, 50 ug/ml [15]: 98.2%
COc1cccc(NC(=O)c2ccc3[nH]c4c5[n+](ccc4c3c2)-c2ccccc2C5=O)c1.[Br-]	0.39	0.195	0.39	> 200	
COc1ccccc1NC(=O)c1ccc2[nH]c3c4[n+](ccc3c2c1)-c1ccccc1C4=O.[Br-]	0.049	0.024	0.049	> 200	inhibition (Staphylococcus aureus [3]): inactive; inhibition [4]: Dose-Dependent Effect; viability at 24 h, 25 ug/ml [6]: 12.8%; inhibition [8]: Dose-Dependent Effect; Activity (Staphylococcus aureus [17]): 2 log10CFU/ml; viability at 24 h, 12.5 ug/ml [9]: 14.6%; hemolysis at 1 h, 12.5 ug/ml [10]: 0%; Activity (Staphylococcus aureus [11]): Active; Activity (RAW264.7): Toxic; inhibition [12]: Active; Activity (Bacillus subtilis [13]): Active; Activity (Staphylococcus aureus [14]): Active; viability at 24 h, 50 ug/ml [15]: 13.2%; Activity (Staphylococcus aureus [18]): 2 log10CFU/ml
CN[C@H](CC(C)C)C(=O)N[C@H]1C(=O)N[C@@H](CC(N)=O)C(=O)N[C@H]2C(=O)N[C@H]3C(=O)N[C@H](C(=O)N[C@H](C(=O)O)c4cc(O)cc(O)c4-c4cc3ccc4O)[C@H](O)c3ccc(c(Cl)c3)Oc3cc2cc(c3O[C@@H]2O[C@H](CO)[C@@H](O)[C@H](O)[C@H]2O[C@H]2C[C@](C)(N)[C@H](O)[C@H](C)O2)Oc2ccc(cc2Cl)[C@H]1O [VANCOMYCIN]				> 200	Activity (Staphylococcus aureus [19]): inactive
CC(C)c1ccccc1NC(=O)c1ccc2[nH]c3c4[n+](ccc3c2c1)-c1ccccc1C4=O.[Br-]	50	6.25	12.5	> 200	
CC(C)c1ccc(NC(=O)c2ccc3[nH]c4c5[n+](ccc4c3c2)-c2ccccc2C5=O)cc1.[Br-]	0.049	0.049	0.195	> 200	
Cc1ccc(NC(=O)c2ccc3[nH]c4c5[n+](ccc4c3c2)-c2ccccc2C5=O)cc1.[Br-]	0.39	0.195	0.78	> 200	
Cc1ccccc1NC(=O)c1ccc2[nH]c3c4[n+](ccc3c2c1)-c1ccccc1C4=O.[Br-]	50	12.5	25	> 200	
CCCCc1ccc(NC(=O)c2ccc3[nH]c4c5[n+](ccc4c3c2)-c2ccccc2C5=O)cc1.[Br-]	0.78	0.049	3.12	> 200	
